Reference: patent US20220194935A1, “PHENETHYL SUBSTITUTED IMIDAZO[4,5-C]QUINOLINE COMPOUNDS WITH AN N-1 BRANCHED GROUP” (3M INNOVATIVE PROPERTIES COMPANY, priority 2019, published 2022)

Test system: Human peripheral blood mononuclear cells (PBMC)
Assay: Cytokine Induction in Human Cells (PBMC), minimum effective concentration
Type: cell-based
Conditions: 21-24 hours, lowest concentration giving at least 2× negative control, tested 0.01-30 micromolar; for MEC to Induce Cytokine, IFN-alpha: ELISA; for MEC to Induce Cytokine, IFN-gamma / MEC to Induce Cytokine, TNF-alpha: multiplex bead assay
Description: Whole blood was obtained from healthy human donors and collected by venipuncture into vacutainer tubes or syringes containing ethylene diamine tetraacetic acid (EDTA). Human peripheral blood mononuclear cells (PBMC) were purified from the whole blood by density gradient centrifugation. Histopaque 1077 (15 mL, Sigma, St. Louis, Mo.) was transferred to 6×50 mL sterile polypropylene conical tubes. The Histopaque was overlayed with 15-25 mL of blood diluted 1:2 in Hank's Balanced Salts Solution (HBSS) (Gibco, Life Technologies, Grand Island, N.Y.). The tubes were then centrifuged at 1370 revolutions per minute (rpm) for 30 minutes at 20° C., with no brake (400×g, GH 3.8A Rotor).
The interface (buffy coat) containing the PBMC was collected and placed in a new sterile 50 mL conical polypropylene centrifuge tube. The PBMC were mixed with an equal volume of HBSS (about 20 mL from the interface and about 20 mL of HBSS), and then centrifuged at 1090 rpm, 10 minutes, 20° C., with brake (270×g, GH 3.8A Rotor). After completing centrifugation, the cells were resuspended in 2-3mL ACK Red blood cell lysis buffer (ammonium chloride potassium solution, Gibco, Life Technologies) and incubated for 2-5 minutes at 20° C. Next, HBSS (40 mL) was added to the cells, and the sample was centrifuged at 270×g for 10 minutes at 20° C. The supernatant was decanted, and the cell pellet was resuspended in 5 mL AIM V Medium (Gibco, Life Technologies). Cell aggregates and debris were removed by filtering the cell solution through a BD Falcon 70 micron nylon cell strainer (BD Biosciences, San Jose, Calif.).
The number of viable cells was determined by counting with a Miltenyi FACS instrument (Miltenyi Biotec Inc., San Diego, Calif.) or by using a hemacytometer. For determining cell viability with a hemacytometer, the cells were diluted 1/10 in 0.4% trypan blue and HBSS (specifically, 50 microliter of trypan blue +40 microliter of HBSS +10 microliter of cell solution were added to a microfuge tube and mixed). Ten microliters of the diluted cells were then applied to the hemacytometer, and the number of viable PBMC were determined by microscopy.
The PBMC sample was then resuspended in 96-well plates at a concentration of 8×10^5 cells/well in 0.1 mL of AIM-V medium. Each compound was solubilized in dimethyl sulfoxide (DMSO) to create a 3 mM stock solution. The stock solution was then further diluted with AIM-V medium to prepare the serial dilutions. The diluted compound (100 microliters) was then transferred to the PBMCs to produce testing sets with final compound concentrations of 30, 10, 3.3, 1.1, 0.37, 0.12, 0.04, 0.01 micromolar. The plates also had both positive and negative controls. The negative control wells contained only AIM-V medium with no example compound. The positive control wells contained a control set of imiquimod serially diluted to concentrations of 30, 10, 3.3, 1.1, 0.37, 0.12, 0.04, 0.01 micromolar. The concentrations used in the control set were selected to match the concentrations used in the testing set. The plates were then cultured at 37° C./5% CO2 for 21-24 hours. Cell-free supernatants were harvested by centrifuging the 96-well plates at 2100 rpm, 23° C. for 10 minutes. Approximately 160 microliters of the supernatant was then stored in a NUNC 96-well plate, covered with the compression cap and stored at −80° C. until the cytokine analysis was done.
IFN-alpha cytokine levels (picograms/mL) were measured by ELISA (human IFN-alpha, pan specific, Mabtech, Cincinnati, Ohio). IFN-gamma and TNF-alpha levels (picograms/mL) were measured by multiplex bead assay (magnetic beads, R & D Systems, Minneapolis, Minn.) according to the manufacturer's instructions.
Specifically, the minimum effective concentration of each compound (micromolar) was determined as the lowest concentration of the compound that induced a measured cytokine response at a level ([…]) that was at least 2× greater than that observed with the negative control wells.

Row | SMILES | MEC to Induce Cytokine, IFN-alpha [µM] | MEC to Induce Cytokine, IFN-gamma [µM] | MEC to Induce Cytokine, TNF-alpha [µM]
1 | Nc1nc2ccccc2c2c1ncn2CCc1ccccc1 [Comparative Example 1, 1-phenethyl-1H-imidazo[4,5-c]quinolin-4-amine, reference compound] | 1.1 | >30 | 1.1
2 | C[C@H](Cc1ccccc1)n1cnc2c(N)nc3ccccc3c21 [Example 1, 1-[(1R)-1-methyl-2-phenyl-ethyl]imidazo[4,5-c]quinolin-4-amine] | 0.37 | 1.1 | 0.12
3 | CCCC[C@H](Cc1ccccc1)n1cnc2c(N)nc3ccccc3c21 [Example 2, 1-[(1R)-1-benzylpentyl]imidazo[4,5-c]quinolin-4-amine] | ≤0.01 | ≤0.01 | ≤0.01
4 | COC[C@@H](Cc1ccccc1)n1cnc2c(N)nc3ccccc3c21 [Example 3, 1-[(1R)-1-benzyl-2-methoxy-ethyl]imidazo[4,5-c]quinolin-4-amine] | 1.1 | >30 | 1.1
5 | CCOC[C@@H](Cc1ccccc1)n1cnc2c(N)nc3ccccc3c21 [Example 4, 1-[(1R)-1-benzyl-2-ethoxy-ethyl]imidazo[4,5-c]quinolin-4-amine] | 0.37 | >30 | 0.37
6 | COC[C@H](Cc1ccccc1)n1cnc2c(N)nc3ccccc3c21 [Example 5, 1-[(1S)-1-benzyl-2-methoxy-ethyl]imidazo[4,5-c]quinolin-4-amine] | ≤0.01 | ≤0.01 | ≤0.01
7 | CCOC[C@H](Cc1ccccc1)n1cnc2c(N)nc3ccccc3c21 [Example 6, 1-[(1S)-1-benzyl-2-ethoxy-ethyl]imidazo[4,5-c]quinolin-4-amine] | ≤0.01 | ≤0.01 | ≤0.01
8 | CCCCOc1ccc(C[C@@H](CCCC)n2cnc3c(N)nc4ccccc4c32)cc1 [Example 7, 1-[(1R)-1-[(4-butoxyphenyl)methyl]pentyl]imidazo[4,5-c]quinolin-4-amine] | ≤0.01 | ≤0.01 | ≤0.01
